# Measured values published in patent publication US9416115B2, “Fused heterocyclic compounds as ion channel modulators” (Gilead Sciences, Inc., priority 2013, dated 2016).
# Key:
# [1] = target: wild-type human cardiac sodium channel, hNav1.5 (Homo sapiens, UniProt Q14524); experiment: Late INa screening assay (QPatch whole cell patch clamp, Tefluthrin-induced late current); type: cell-based; conditions: HEK293 hNav1.5, percent block of late INa
# Procedure, shortened: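 HEK293 cells stably expressing hNav1.5 without beta subunits were whole-cell patch clamped at 23-25 °C, stepping from −120 to −20 mV for 250 ms at 0.1 Hz. Late current (240–265 ms) was induced with 10 μM Tefluthrin, and compounds were added typically at 0.3 or 1 μM. Percent block was taken against 0 Na baseline with rundown correction.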
# hNav1.1 (SCN1A) = hNav1.1 (SCN1A) (Homo sapiens, UniProt P35498); experiment: Use-dependent inhibition of the CNS Nav1.1 sodium channel; type: cell-based; conditions: use-dependent block, 25 Hz, pulse 20, read-out: Nav1.1 UDB 25 Hz 10 uM
# Procedure, shortened: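 HEK-293 cells stably expressing WT hNav1.1, automated whole-cell patch clamp at 23-25 °C with CsF-based internal and NaCl external solutions, pH 7.35. Compound applied twice, 200 s equilibration; block measured at pulse 20 of a 25 Hz train (0 mV, 20 ms) from −120 mV, as mean % inhibition versus compound-free.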
# wild-type human cardiac sodium channel, hNav1.5, sequence (Q14524 whole entry): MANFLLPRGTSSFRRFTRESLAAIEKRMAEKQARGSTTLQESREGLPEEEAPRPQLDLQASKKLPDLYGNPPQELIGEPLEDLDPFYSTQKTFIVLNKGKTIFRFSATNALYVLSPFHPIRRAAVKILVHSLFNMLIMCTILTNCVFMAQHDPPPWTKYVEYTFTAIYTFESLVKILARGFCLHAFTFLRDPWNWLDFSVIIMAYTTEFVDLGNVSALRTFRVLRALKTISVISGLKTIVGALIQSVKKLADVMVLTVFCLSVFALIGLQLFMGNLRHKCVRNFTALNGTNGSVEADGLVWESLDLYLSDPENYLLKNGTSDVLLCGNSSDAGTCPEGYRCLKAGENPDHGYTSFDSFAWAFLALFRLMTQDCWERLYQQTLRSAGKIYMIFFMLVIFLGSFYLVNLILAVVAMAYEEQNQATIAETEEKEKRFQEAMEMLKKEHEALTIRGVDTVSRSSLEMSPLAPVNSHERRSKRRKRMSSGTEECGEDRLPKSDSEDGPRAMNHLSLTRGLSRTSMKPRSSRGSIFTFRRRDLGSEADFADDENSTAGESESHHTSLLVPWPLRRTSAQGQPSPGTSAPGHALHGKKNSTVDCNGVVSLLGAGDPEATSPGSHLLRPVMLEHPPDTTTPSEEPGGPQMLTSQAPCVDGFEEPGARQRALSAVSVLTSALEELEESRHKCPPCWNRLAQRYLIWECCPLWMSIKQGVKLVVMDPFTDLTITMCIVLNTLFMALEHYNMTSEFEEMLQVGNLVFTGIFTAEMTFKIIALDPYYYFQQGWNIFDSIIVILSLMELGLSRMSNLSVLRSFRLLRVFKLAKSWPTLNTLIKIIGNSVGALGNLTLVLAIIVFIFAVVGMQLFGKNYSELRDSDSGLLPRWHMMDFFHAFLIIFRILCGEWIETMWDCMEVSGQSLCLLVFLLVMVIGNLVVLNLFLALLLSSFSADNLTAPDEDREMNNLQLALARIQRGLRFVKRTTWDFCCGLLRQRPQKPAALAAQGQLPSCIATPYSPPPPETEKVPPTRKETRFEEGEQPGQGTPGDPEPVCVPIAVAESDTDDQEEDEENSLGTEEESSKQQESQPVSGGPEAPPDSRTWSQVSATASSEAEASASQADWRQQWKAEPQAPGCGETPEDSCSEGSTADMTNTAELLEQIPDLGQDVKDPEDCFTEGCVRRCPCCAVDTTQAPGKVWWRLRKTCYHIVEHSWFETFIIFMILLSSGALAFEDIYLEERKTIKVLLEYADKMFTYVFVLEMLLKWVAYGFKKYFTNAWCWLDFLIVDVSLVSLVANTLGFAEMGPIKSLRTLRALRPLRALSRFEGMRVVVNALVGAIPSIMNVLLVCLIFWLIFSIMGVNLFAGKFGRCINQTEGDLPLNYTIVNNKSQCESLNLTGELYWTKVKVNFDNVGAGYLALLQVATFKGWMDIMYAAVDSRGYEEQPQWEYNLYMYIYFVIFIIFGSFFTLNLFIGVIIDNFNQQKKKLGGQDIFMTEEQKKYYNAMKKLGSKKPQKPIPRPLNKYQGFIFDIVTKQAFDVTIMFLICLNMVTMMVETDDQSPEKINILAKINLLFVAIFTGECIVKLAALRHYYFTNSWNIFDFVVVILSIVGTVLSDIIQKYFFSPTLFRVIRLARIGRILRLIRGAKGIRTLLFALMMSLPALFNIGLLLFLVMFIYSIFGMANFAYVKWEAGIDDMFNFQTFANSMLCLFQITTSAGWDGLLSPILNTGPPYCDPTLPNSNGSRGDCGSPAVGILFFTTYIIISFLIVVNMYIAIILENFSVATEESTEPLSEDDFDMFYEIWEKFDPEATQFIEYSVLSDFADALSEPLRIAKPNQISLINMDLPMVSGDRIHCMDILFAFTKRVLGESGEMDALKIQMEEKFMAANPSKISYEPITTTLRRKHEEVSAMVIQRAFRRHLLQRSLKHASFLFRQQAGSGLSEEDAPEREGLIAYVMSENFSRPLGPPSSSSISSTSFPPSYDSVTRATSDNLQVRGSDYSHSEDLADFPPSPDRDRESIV
SMILES,inhibition at 0.3 µM [1] [%],inhibition at 1 µM [1] [%],inhibition at 10 µM (hNav1.1 (SCN1A)) [%]
"C[C@@H](N)COc1noc2ccc(-c3ccc(OC(F)(F)F)cc3)cc12 [Example 117, (R)-1-((5-(4-(trifluoromethoxy)phenyl)benzo[d]isoxazol-3-yl)oxy)propan-2-amine]",39.4,78.1,80.9
"CC(C)[C@H](N)COc1noc2ccc(-c3ccc(OC(F)(F)F)cc3)cc12 [Example 118, (S)-3-methyl-1-((5-(4-(trifluoromethoxy)phenyl)benzo[d]isoxazol-3-yl)oxy)butan-2-amine]",22.5,66.1,89.4
"C[C@H](COc1noc2ccc(-c3ccc(OC(F)(F)F)cc3)cc12)N1CCCC1=O [Example 119, (R)-1-(1-((5-(4-(trifluoromethoxy)phenyl)benzo[d]isoxazol-3-yl)oxy)propan-2-yl)pyrrolidin-2-one]",,51.2,56.3
"CC(C)[C@@H](COc1noc2ccc(-c3ccc(OC(F)(F)F)cc3)cc12)N1CCCC1=O [Example 120, (S)-1-(3-methyl-1-((5-(4-(trifluoromethoxy)phenyl)benzo[d]isoxazol-3-yl)oxy)butan-2-yl)pyrrolidin-2-one]",35.8,58.2,68.9
"O=C(COc1noc2ccc(-c3ccc(OC(F)(F)F)cc3)cc12)N1CCCC1 [Example 121, 1-(pyrrolidin-1-yl)-2-((5-(4-(trifluoromethoxy)phenyl)benzo[d]isoxazol-3-yl)oxy)ethan-1-one]",39,77.7,43.6
"CC(C)NC(=O)COc1noc2ccc(-c3ccc(OC(F)(F)F)cc3)cc12 [Example 122, N-isopropyl-2-((5-(4-(trifluoromethoxy)phenyl)benzo[d]isoxazol-3-yl)oxy)acetamide]",,41.3,< 5
"FC(F)(F)Oc1ccc(-c2ccc3onc(OCCNc4ncccn4)c3c2)cc1 [Example 123, N-(2-((5-(4-(trifluoromethoxy)phenyl)benzo[d]isoxazol-3-yl)oxy)ethyl)pyrimidin-2-amine]",,36.3,< 5
"FC(F)(F)Oc1ccc(-c2ccc3onc(Oc4ncccn4)c3c2)cc1 [Example 124, 3-(pyrimidin-2-yloxy)-5-(4-(trifluoromethoxy)phenyl)benzo[d]isoxazole]",,53.7,35
"FC(F)(F)Oc1ccc(-c2ccc3onc(NCc4ncccn4)c3c2)cc1 [Example 126, N-(pyrimidin-2-ylmethyl)-5-(4-(trifluoromethoxy)phenyl)benzo[d]isoxazol-3-amine]",,50,< 5
"CN1CCN(c2noc3ccc(-c4ccc(OC(F)(F)F)cc4)cc23)CC1 [Example 127, 3-(4-methylpiperazin-1-yl)-5-(4-(trifluoromethoxy)phenyl)benzo[d]isoxazole]",,37.4,82.8
"FC(F)(F)Oc1ccc(-c2ccc3onc(NCC4CC4)c3c2)cc1 [Example 128, N-(cyclopropylmethyl)-5-(4-(trifluoromethoxy)phenyl)benzo[d]isoxazol-3-amine]",,42,< 5
"FC(F)(F)Oc1ccc(-c2ccc3onc(N4CCOCC4)c3c2)cc1 [Example 130, 3-morpholino-5-(4-(trifluoromethoxy)phenyl)benzo[d]isoxazole]",,38.3,< 5
"FC(F)(F)Oc1ccc(-c2ccc3onc(-n4ccnc4)c3c2)cc1 [Example 132, 3-(1H-imidazol-1-yl)-5-(4-(trifluoromethoxy)phenyl)benzo[d]isoxazole]",,40.5,< 5
"CN(C)c1noc2ccc(-c3ccc(OC(F)(F)F)cc3)cc12 [Example 133, N,N-dimethyl-5-(4-(trifluoromethoxy)phenyl)benzo[d]isoxazol-3-amine]",,45.8,22.1
"O=C1CCCN1CCNc1noc2ccc(-c3ccc(OC(F)(F)F)cc3)cc12 [Example 135, 1-(2-((5-(4-(trifluoromethoxy)phenyl)benzo[d]isoxazol-3-yl)amino)ethyl)pyrrolidin-2-one]",19.7,48.8,87.2
"FC(F)(F)Oc1ccc(-c2ccc3onc(-n4cncn4)c3c2)cc1 [Example 136, 3-(1H-1,2,4-triazol-1-yl)-5-(4-(trifluoromethoxy)phenyl)benzo[d]isoxazole]",,44.8,< 5

SMILES,inhibition at 0.3 µM [1] [%],inhibition at 1 µM [1] [%],inhibition at 10 µM (hNav1.1 (SCN1A)) [%]
"FC(F)(F)Oc1ccc(-c2ccc3onc(NCCn4cncn4)c3c2)cc1 [Example 137, N-(2-(1H-1,2,4-triazol-1-yl)ethyl)-5-(4-(trifluoromethoxy)phenyl)benzo[d]isoxazol-3-amine]",,47.2,82.6
"Cc1cn(-c2noc3ccc(-c4ccc(OC(F)(F)F)cc4)cc23)cn1 [Example 139, 3-(4-methyl-1H-imidazol-1-yl)-5-(4-(trifluoromethoxy)phenyl)benzo[d]isoxazole]",,41.2,8.8
"FC(F)(F)Oc1ccc(-c2ccc3onc(-n4cnc(Cl)c4)c3c2)cc1 [Example 140, 3-(4-chloro-1H-imidazol-1-yl)-5-(4-(trifluoromethoxy)phenyl)benzo[d]isoxazole]",,37.6,< 5
"Cc1ncn(-c2noc3ccc(-c4ccc(OC(F)(F)F)cc4)cc23)n1 [Example 141, 3-(3-methyl-1H-1,2,4-triazol-1-yl)-5-(4-(trifluoromethoxy)phenyl)benzo[d]isoxazole]",,38.6,31.5
"FC(F)(F)Oc1ccc(-c2ccc3onc(-n4cnc(-c5ccccc5)c4)c3c2)cc1 [Example 142, 3-(4-phenyl-1H-imidazol-1-yl)-5-(4-(trifluoromethoxy)phenyl)benzo[d]isoxazole]",,44,59
"CC(C)(C)c1cn(-c2noc3ccc(-c4ccc(OC(F)(F)F)cc4)cc23)cn1 [Example 143, 3-(4-(tert-butyl)-1H-imidazol-1-yl)-5-(4-(trifluoromethoxy)phenyl)benzo[d]isoxazole]",35.9,60.3,66.6
"CC(C)c1nccn1-c1noc2ccc(-c3ccc(OC(F)(F)F)cc3)cc12 [Example 144, 3-(2-isopropyl-1H-imidazol-1-yl)-5-(4-(trifluoromethoxy)phenyl)benzo[d]isoxazole]",25.9,55.7,73.2
"FC(F)(F)Oc1ccc(-c2ccc3onc(-n4cnc(C(F)(F)F)c4)c3c2)cc1 [Example 145, 5-(4-(trifluoromethoxy)phenyl)-3-(4-(trifluoromethyl)-1H-imidazol-1-yl)benzo[d]isoxazole]",61.7,84.9,81.4
"OCc1cn(-c2noc3ccc(-c4ccc(OC(F)(F)F)cc4)cc23)cn1 [Example 146, (1-(5-(4-(trifluoromethoxy)phenyl)benzo[d]isoxazol-3-yl)-1H-imidazol-4-yl)methanol]",,48.4,87.3
"Nc1noc2ccc(-c3ccc(OC(F)(F)F)cc3)cc12 [Example 147, 5-(4-(trifluoromethoxy)phenyl)benzo[d]isoxazol-3-amine]",,45.4,32
"COc1ccnc(CNc2noc3ccc(-c4ccc(OC(F)(F)F)cc4)cc23)n1 [Example 149, N-((4-methoxypyrimidin-2-yl)methyl)-5-(4-(trifluoromethoxy)phenyl)benzo[d]isoxazol-3-amine]",50.9,87.6,50
"CCN(CC)C(=O)COc1noc2ccc(-c3ccc(OC(F)(F)F)cc3)cc12 [Example 150, N,N-diethyl-2-((5-(4-(trifluoromethoxy)phenyl)benzo[d]isoxazol-3-yl)oxy)acetamide]",49.4,68.2,62.8
"FC(F)(F)Oc1ccc(-c2ccc3onc(OCc4cnccn4)c3c2)cc1 [Example 151, 3-(pyrazin-2-ylmethoxy)-5-(4-(trifluoromethoxy)phenyl)benzo[d]isoxazole]",50.7,70.1,20
"Cc1nccnc1COc1noc2ccc(-c3ccc(OC(F)(F)F)cc3)cc12 [Example 152, 3-((3-methylpyrazin-2-yl)methoxy)-5-(4-(trifluoromethoxy)phenyl)benzo[d]isoxazole]",19.8,53.4,11.4
"Cc1nnc(C(C)Oc2noc3ccc(-c4ccc(OC(F)(F)F)cc4)cc23)o1 (centres unmarked) [Example 153, 3-(1-(5-methyl-1,3,4-oxadiazol-2-yl)ethoxy)-5-(4-(trifluoromethoxy)phenyl)benzo[d]isoxazole]",51.3,67.6,73.1
"FC(F)(F)Oc1ccc(-c2ccc3onc(OCc4nnc(C5CC5)s4)c3c2)cc1 [Example 154, 3-((5-cyclopropyl-1,3,4-thiadiazol-2-yl)methoxy)-5-(4-(trifluoromethoxy)phenyl)benzo[d]isoxazole]",,39.2,19.8
